Results reported in paper PMC6940896, “Development of a Highly Efficient Hybrid Peptide That Increases Immunomodulatory Activity Via the TLR4-Mediated Nuclear Factor-κB Signaling Pathway” (International Journal of Molecular Sciences, 2019).
Each block holds one molecule with its values, some of them ahead of it.

Legend:
[1] = Ex vivo stability in plasma; type: in vitro ADME; details: rat plasma, in vitro, 37 °C, HPLC, log-linear regression; mean ± SEM of three biological replicates; read-out: t1/2, half-life in plasma (converted)
Experimental: The samples were collected into pre-chilled tubes containing 1 mL of acidic acetone (hydrochloric acid/acetone/H2O, 1:40:5, by volume). Subsequently, the mixture was centrifuged at 2 × 10^4 rpm at 4 °C for 20 min. The precipitates were dried in vacuo. The dried precipitates were dissolved in 0.5 mL of 1 M acetic acid. The peptide analysis was carried out according to the protocol for the study of Tα1 using HPLC [51]. The half-lives of the target peptides were calculated by a logarithm-linear regression analysis of the peptide concentrations.

peritoneal macrophages = assay: Peritoneal macrophage phagocytosis (neutral red uptake) in CTX-immunosuppressed mice; type: in vivo, mouse; details: peritoneal macrophages of mice, OD 540 nm, CTX 80 mg/kg ip days 1-3, peptide 10 mg/kg ip days 4-10, control group 55.67%, n = 12
Experimental: For the first 3 days, CTX (80 mg/kg mouse weight) was administered intraperitoneally once daily to establish the immunosuppressed animal model. From days 4 to 10 (7 days), peptides (10 mg/kg mouse weight) were administered intraperitoneally each day. The CTX group was only treated with CTX, and the control group was given sterile saline. The dose volume was 200 μL. Twenty-four hours after the last dose, the mice were killed and their tissues and blood collected for analysis.
Peritoneal macrophages were aseptically obtained from the different groups of mice by peritoneal lavage with 5 mL ice-cold phosphate-buffered saline (PBS). The peritoneal macrophages were further isolated by incubating peritoneal exudate cells at 37 °C in a moist atmosphere (5% CO2, 95% air) for 3 h to allow the cells to adhere. The adherent cells were washed twice and collected as peritoneal macrophages.
The phagocytic capacity of the peritoneal macrophages was measured by the neutral red uptake method [52]. […] The OD was measured using a microplate reader at 540 nm. The phagocytic rate was calculated in the following way:(4) hagocytic rate (%)=OD540(sample)/OD540(control) ×100% where OD540 (sample) is the absorbance at 540 nm by peptide-treated cells and OD540 (control) is the absorbance at 540 nm by the cells without peptides treated.

[2] = target: T1, recombinant TLR4/MD2 complex (UniProt Q9QUK6 26-638; Q9JHF9 19-160); assay: SPR; TLR4/MD2 immobilised by amino coupling on a ProteOn GLH chip (ProteOn XPR36); LTAa passed over at 0, 1.25, 2.5, 5 and 10 μM (methods print mM); 25 °C; PBS with 0.1% Tween 20 and 2% DMSO; 30 μL/min; global fit, homogeneous 1:1 model; details: both partners purified
T1 construct: Toll-like receptor 4 (TLR4) of the recombinant TLR4/MD2 complex; MD-2 (MD2, lymphocyte antigen 96) of the recombinant TLR4/MD2 complex; source: bought: R&D Systems
T1 sequence (looked up) 1: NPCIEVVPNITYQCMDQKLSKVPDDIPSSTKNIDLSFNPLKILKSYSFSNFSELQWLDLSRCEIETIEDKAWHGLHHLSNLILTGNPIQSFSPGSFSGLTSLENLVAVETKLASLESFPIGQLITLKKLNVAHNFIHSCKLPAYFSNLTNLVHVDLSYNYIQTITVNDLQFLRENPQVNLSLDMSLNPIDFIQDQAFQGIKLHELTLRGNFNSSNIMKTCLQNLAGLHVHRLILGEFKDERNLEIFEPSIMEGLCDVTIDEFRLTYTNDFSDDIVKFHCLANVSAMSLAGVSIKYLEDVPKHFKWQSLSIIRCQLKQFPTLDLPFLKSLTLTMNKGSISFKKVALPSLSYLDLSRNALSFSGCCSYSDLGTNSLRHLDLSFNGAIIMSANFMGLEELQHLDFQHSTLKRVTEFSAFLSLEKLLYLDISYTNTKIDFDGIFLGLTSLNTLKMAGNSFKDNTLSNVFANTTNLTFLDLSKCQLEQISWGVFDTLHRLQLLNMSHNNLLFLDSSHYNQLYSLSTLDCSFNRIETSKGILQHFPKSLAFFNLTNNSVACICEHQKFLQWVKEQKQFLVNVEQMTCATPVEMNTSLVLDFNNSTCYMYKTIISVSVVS
T1 sequence (looked up) 2: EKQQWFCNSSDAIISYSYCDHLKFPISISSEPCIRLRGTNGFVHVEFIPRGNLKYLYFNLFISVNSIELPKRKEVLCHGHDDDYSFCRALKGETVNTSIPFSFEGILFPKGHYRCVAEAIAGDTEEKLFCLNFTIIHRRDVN

Molecule: CC[C@H](C)[C@H](NC(=O)[C@H](CCCCN)NC(=O)[C@H](CCC(=O)O)NC(=O)[C@H](CCCCN)NC(=O)[C@H](CO)NC(=O)[C@H](CCCCN)NC(=O)[C@H](CCCNC(=N)N)NC(=O)[C@H](Cc1ccccc1)NC(=O)[C@H](Cc1ccccc1)NC(=O)[C@H](CC(=O)O)NC(=O)CNC(=O)[C@H](CC(C)C)NC(=O)[C@@H](N)CC(C)C)C(=O)NCC(=O)N[C@@H](CCCCN)C(=O)N[C@@H](CCC(=O)O)C(=O)N[C@@H](Cc1ccccc1)C(=O)N[C@@H](CCCCN)C(=O)N[C@@H](CCCNC(=N)N)C(=O)N[C@H](C(=O)N[C@H](C(=O)N[C@@H](CCC(N)=O)C(=O)N[C@@H](CCCNC(=N)N)C(=O)N[C@H](C(=O)N[C@@H](CCCCN)C(=O)N[C@@H](CC(=O)O)C(=O)N[C@@H](Cc1ccccc1)C(=O)N[C@@H](CC(C)C)C(=O)N[C@@H](CCCNC(=N)N)C(=O)N[C@@H](CC(N)=O)C(=O)N[C@@H](CC(C)C)C(=O)N[C@H](C(=O)N1CCC[C@H]1C(=O)N[C@@H](CCCNC(=N)N)C(=O)N[C@H](C(=O)N[C@@H](CCC(=O)O)C(=O)N[C@@H](CO)C(=O)O)[C@@H](C)O)C(C)C)[C@@H](C)CC)C(C)C)[C@@H](C)CC [LL-37]
- half-life [1]: 3.1 ± 0.87 h

Molecule: O=P1(N(CCCl)CCCl)NCCCO1 (stereo not drawn) [CTX, cyclophosphamide, reference compound]
- macrophage phagocytic rate (peritoneal macrophages): 31.93%

- Kd [2]: 49.1 pM
B1: LL-37-Tα1a hybrid peptide (LTAa) (peptide)
peptide: IGKEFKRIVQRIKDFLRNLVPRTEKEKKEVVE
notes: LL-37, human cationic host-defense peptide, residues 13-36; Thymosin alpha-1 (Tα1), residues 17-24 (Tα1a); (32 residues); source: synthetic peptide (solid-phase, KangLong Biochemistry; purity >95%)
